# Assay results from patent US9573972B2, “Nurotoxic sterol glycosides” (priority 2008, dated 2017).
# Entries after “also recorded” stand apart in the source; their conditions may differ.
# Tests used:
# Type in all cases: in vivo, mouse
# male CD-1 mice [1] = test: Gait analysis (Digigait), SG-fed mice; details: SG-fed vs control
# Description: (§1) Five-month old male CD-1 mice (30.1-35.7 g, 7.5 cm-8.8 cm) were purchased from Charles River (Wilmington, Mass.). Adult mice were chosen to mimic the mean age of onset of ALS-PDC (Kurland, L. T. (1988a) Trends Neurosci. 11, 51-4; Kurland, L. T., et al. (1994) Amyotrophic lateral sclerosis-parkinsonism-dementia complex on Guam: epidemiologic and etiological perspectives. 109-131). Thirty mice for the SG study were randomly divided into 2 groups (14 control and 16 experimental animals). All animals were housed singly in a virus-free barrier facility in a room maintained at 22° C. under a 12 hour light/dark cycle. The mice were provided ad libitum access to food and water.
# The synthetic SG was mixed with finely ground Purina Chow mouse pellets (Mouse Diet™, Purina) to create the experimental pellets with a SG content of 1000 μg per pellet. Dry materials were blended with a sterile silicon spatula. For every 5 g of standard feed, 2.5 mL of doubly-distilled water (dd)H2O was added and the dough was kneaded and round up into pellets. A single sterol glucoside containing pellet was placed in the feeding tray each morning before the addition of regular mouse chow (ad libitum). All experimental pellets were entirely consumed by the mice each day. Control mice were fed standard mouse chow pellets of identical weight with no additives. SG feeding was conducted daily for 15 weeks and mice were behaviorally monitored until sacrifice at 35 weeks (time point 1) or 52 weeks (time point 2).
# Gait analysis: In order to examine spatial and temporal indices of front and hind limb stepping patterns during forward locomotion, mice were required to run on a colorless (PVC and polycarbonate), straight, level, walled motorized belt (Digigait™, treadmill motor: DC, HP; torque 451b-in, Mouse Specifics, Inc., Boston, Mass., USA) set at 30 rpm with a no-flicker light source (90-250 VAC; 25 kHZ, Mouse Specifics, Inc., Boston, Mass., USA) and camera mounted ventrally (relative to the animal) to facilitate continuous ventral plane videography (up to 150 frames per second) of activity. Gait indices were analyzed with the complementary digital imaging software (Digigait™, Mouse Specifics, Inc., Boston, Mass., USA) as per manufacturer's instructions. Briefly, the software converts “paw prints” into a digital signal and generates a temporal record of paw placement and breaks down the digital file into three main parameters: stride duration, swing duration, and stance duration. The stance duration is the period during which the paw of a limb is in contact with the belt surface. The software further subdivides the stance duration into two components: braking duration (the increase in paw contact area over a discrete time interval) and propulsion duration (the decrease in paw contact area over a discrete time interval). The swing duration is the period of time that a paw is not in contact with the belt surface. In addition to these factors, over a dozen additional characteristics, including stance factor, step-sequence pattern, propulsion, and cadence are generated to provide a spreadsheet format report of twenty-five gait indices.
# [2] = tested on: Tyrosine Hydroxylase (dopaminergic cells); test: Tyrosine hydroxylase immunohistochemistry; details: striatum, SG-fed, either time-point
# Procedure: Labelling of dopaminergic neurons in brain sections was identified by antibodies for tyrosine hydroxylase (Morrow, C. E., Bandstra, et al., (2001) Neurotoxicol Teratol. 23, 533-44) and indirect immunoperoxidase staining. Sections were incubated in blocking serum for 2 hours then with the primary antibody (rabbit anti-tyrosine hydroxylase, 1:500, Affinity Bioreagents, Golden, Colo., USA) for 3 hours at RT. Sections were rinsed and incubated in biotinylated goat anti-rabbit IgG (1:100; Vector laboratories Inc., Burlingame, USA) for 30 minutes at RT, then visualized using the ABC method (Vectastain Elite ABC kit, Vector Laboratories Inc.).
# The numbers of immunoreactive somata or inclusions were counted across the ventral horn of the spinal cord, across brain hemispheres, or per dorsal or ventral root with the 40× objective lens in a 600 μm/600 μm area within region perimeters defined by a mouse brain atlas (2001). For each animal, eight cross-sections per spinal cord or brain region were studied. An average of both the right and left ventral horn for each of the eight cross sections was generated giving a final averaged number for each animal in each of the spinal cord areas. […]
# male CD-1 mice [3] = test: Leg extension reflex test, SG-fed mice
# Description: as §1
# The synthetic SG was mixed with finely ground Purina Chow mouse pellets (Mouse Diet™, Purina) to create the experimental pellets with a SG content of 1000 μg per pellet. Dry materials were blended with a sterile silicon spatula. For every 5 g of standard feed, 2.5 mL of doubly-distilled water (dd)H2O was added and the dough was kneaded and round up into pellets. […] SG feeding was conducted daily for 15 weeks and mice were behaviorally monitored until sacrifice at 35 weeks (time point 1) or 52 weeks (time point 2).
# Leg extension reflex test: The leg extension reflex test was used as a measure of motor neuron dysfunction (Barneoud et al., 1999). […] The leg extension reflex was measured three times per week in each animal. […]
smiles,measurement,setting,value
"CC[C@H](/C=C/[C@@H](C)[C@H]1CC[C@H]2[C@@H]3CC=C4C[C@@H](O[C@@H]5O[C@H](CO)[C@@H](O)[C@H](O)[C@H]5O)CC[C@]4(C)[C@H]3CC[C@]12C)C(C)C [SG, Stigmasterol β-D-Glucopyranoside]",Forelimb braking,male CD-1 mice [1]; Time-point 1 (35 wk),Forelimb braking (ns)
same,Forelimb propulsion,male CD-1 mice [1]; Time-point 1 (35 wk),Forelimb propulsion (ns)
same,Forelimb stance width,male CD-1 mice [1]; Time-point 1 (35 wk),Forelimb stance width (ns)
same,Forelimb stride length,male CD-1 mice [1]; Time-point 1 (35 wk),Forelimb stride length (ns)
same,Hind limb braking,male CD-1 mice [1]; Time-point 1 (35 wk),Hind limb braking (ns)
same,Hind limb propulsion,male CD-1 mice [1]; Time-point 1 (35 wk),Hind limb propulsion (ns)
same,Hind limb stance width,male CD-1 mice [1]; Time-point 1 (35 wk),Hind limb stance width (ns)
same,Hind limb stride frequency,male CD-1 mice [1]; Time-point 1 (35 wk),Hind limb stride frequency (ns)
same,Hind limb stride length,male CD-1 mice [1]; Time-point 1 (35 wk),Hind limb stride length (ns)
same,Forelimb braking,male CD-1 mice [1]; Time-point 2 (52 wk),Forelimb braking* (*p < 0.05)
same,Forelimb propulsion,male CD-1 mice [1]; Time-point 2 (52 wk),Forelimb propulsion* (*p < 0.05)
same,Hind limb braking,male CD-1 mice [1]; Time-point 2 (52 wk),Hind limb braking* (*p < 0.05)
same,Hind limb propulsion,male CD-1 mice [1]; Time-point 2 (52 wk),Hind limb propulsion* (*p < 0.05)
same,Hind limb stride frequency,male CD-1 mice [1]; Time-point 2 (52 wk),Hind limb stride frequency* (*p < 0.05)
same,Decrease in tyrosine hydroxylase optical density in striata,[2],not significant
same,Leg extension,"male CD-1 mice [3]; SG-fed vs control, Time-point 2 (52 wk)",Leg extension* (*p < 0.05)
same,Leg extension reflex test performance (score 0-4),"male CD-1 mice [3]; SG-fed, duration of study",decreased; also recorded: steady decline in performance
